Key:
[1] = tested on: 3′UTR of AURKB; assay: 3′UTR Luciferase assay in HeLa cells; type: cell-based; settings: 10 nM mimic, 24 hrs
Method: (§1) The 3′UTR sequences (Table 11) were synthesized by IDT Technologies, and cloned into psiCHECK™-2 (Promega). HeLa cells (5×10^4) were seeded in 24-well plates, and the next day transfected with 100 ng/well 3′UTR psiCHECK™-2 construct and 10 nM miR-3157 mimics, or control miRNA using Lipofectamine 2000 Transfection Reagent (Invitrogen). After 24 hrs cells were lysed using Passive Lysis Buffer and luciferase activity was measured using the Dual-Luciferase Reporter Assay System (Promega) and the Glomax-Multi Detection system (Promega) in a 96-well format according to the manufacturer's protocol. The Renilla luciferase signal was normalized to background Firefly luciferase, and changes in Renilla luciferase activity in the miR-3157 transfected cells calculated relative to the Renilla signal in control mimic transfected cells.

[2] = tested on: 3′UTR of RRM2; assay: 3′UTR Luciferase assay in HeLa cells; type: cell-based; settings: 10 nM mimic, 24 hrs
Method: as §1

[3] = tested on: 3′UTR of ERK1; assay: 3′UTR Luciferase assay in HeLa cells; type: cell-based; settings: 10 nM mimic, 24 hrs
Method: as §1

[4] = tested on: ERK1/MAPK3, RRM2, AURKB, CDK4, BCL2, BIRC5 mRNA; assay: Quantitative real-time PCR of mRNA levels in A375 cells; type: cell-based, human; settings: 10 nM mimic, compared to miRNA control (FIG. 12b)
Method: Total RNA was isolated using TRI Reagent® (Sigma). To detect miR-3157 and U6 (small nuclear RNA RNU6-1) by qPCR, first 100 ng total RNA was mixed with 50 nM of a miR-3157 specific stem-loop (SL) primer or a U6 Reverse Transcriptase (RT) primer (Table 9), 33 μM dNTPs and 50 units M-MLV Reverse Transcriptase (RT) enzyme (Promega) in a 15 μl SL-RT reaction, and incubated for 30 min at 16° C., 30 min at 42° C. and 5 min at 85° C. For cDNA synthesis of total RNA, 1 μg RNA was mixed with 50 units M-MLV RT enzyme, 0.4 μg random hexamers (Qiagen) and 1 mM dNTPs in a 20 μl cDNA synthesis reaction, and incubated 10 min at 25° C., 120 min at 37° C. and 5 min at 85° C. For miR-3157 and U6 quantification, one μl SL-RT product was used for quantification in a single 20 μl qPCR reaction, using iQ™ SYBR® Green (Bio-Rad), and 0.625 μM forward and reverse primer (Table 9). The PCR protocol was 5 min 95° C. (1×), 10 s 95° C./20 s 60° C./10 s 72° C. (×45). For mRNA quantification, 1 μl cDNA was incubated with 1.25 μM gene-specific forward and reverse primers (Table 10) and iQ™ SYBR® Green in a 20 μl qPCR reaction for 5 min at 95° C. (1×), 15 s 95° C./30 s 60° C./30 s 72° C. (×45). PCR amplification was performed on a CFX96 Touch™ Real-Time PCR Detection System (Bio-Rad).

[5] = tested on: mRNA levels in A375 cells; assay: RNA sequencing (transcriptome) of transfected A375 cells; type: cell-based, human; settings: 100 nM mimic
Method: A375 cells were plated in duplo in a 6-well plate at 1.5×10^5 cells/well. The next day, cells were transfected with 100 nM miR-3157 or Negative Control #2 mimics, using 15 μl X-tremeGENE. This procedure (plating and transfection) was repeated three times to generate biological replicates. After 72 hrs, total RNA was isolated using TRI reagent (Sigma-Aldrich) according to the manufacturer's protocol. From 30 μg total RNA, the mRNA was isolated using the MicroPoly(A)Purist kit (Ambion), and the mRNA-ONLY Eukaryotic mRNA Isolation Kit (Epicenter). RNAseq libraries were further prepared using the SOLiD™ Total RNA-Seq Kit (Life Technologies (LT)). Fragmentation of the isolated mRNA was performed by incubation in 20 μl 3 mM MgCl/10 mM Tris pH8, for 15 minutes at 95° C. The fragmented mRNA was incubated with SOLiD™ Adapter mix (LT) in STAR hybridization solution (LT), and incubated for 5 minutes at 65° C. After incubation on ice, adapter ligation was performed according to the STAR protocol (LT). The samples were run on a 10% denaturing polyacrylamide gel, and fragments from 180-300 nucleotides were excised. Reverse transcription and PCR amplification of the libraries was performed according to the STAR protocol, followed by excision of 200 to 300 nucleotide fragments from a 6% native polyacrylamide gel. Sequencing of the fragments was performed on the SOLiD™ System (LT). […]

[6] = tested on: M249-AR (M249-R4) melanoma cell line; assay: Anti-proliferative effect of miRNA mimics, MTS assay; type: cell-based; settings: 30 nM mimic, 72 hours after transfection
Method: (§2) The anti-proliferative effect of miRNA's in melanoma cell lines was determined with mature miRNA mimics from Ambion. For each cell line optimal growth and transfection conditions were determined prior to the experiment. Cells were plated in a 96-well plate at 3000 cells per well (100 uL) and were grown at 37 C, 5% CO2. Transfection mix (20 uL per well) was made for each miRNA mimic concentration with 0.3 uL (M249, M249-R4) or 0.5 uL (A375Hu, A375Hu-R1, A2058, RPMI-7951) X-TremeGene (Roche) per well (according to manufacturer's instructions) in Optimem (Invitrogen). Cells were transfected 24 hours after plating in triplicate. Medium was replaced 48 hours after transfection with fresh medium.

[7] = tested on: M249 melanoma cell line; assay: as above; type: cell-based; settings: 5 nM mimic, 72 hours after transfection
Method: as §2

[8] = tested on: A2058 melanoma cell line; assay: as above; type: cell-based; settings: 10 nM mimic, 72 hours after transfection
Method: as §2

[9] = tested on: RPMI-7951 melanoma cell line; assay: as above; type: cell-based; settings: 10 nM mimic, 72 hours after transfection
Method: as §2

[10] = tested on: A375Hu melanoma cell line; assay: as above; type: cell-based, human; settings: 10 nM mimic, 72 hours after transfection
Method: as §2

[11] = tested on: A375Hu-R1 melanoma cell line; assay: as above; type: cell-based, human; settings: 10 nM mimic, 72 hours after transfection
Method: as §2

hsa-miR-3157-5p: mature miRNA mimic, SEQ ID NO 6 UUCAGCCAGGCUAGUGCAGUCU (listed as RNA, chemistry not given here)
luciferase activity, AURKB 3′UTR with mutated miR-3157 binding site [1]: remained unaffected | luciferase activity, AURKB 3′UTR unmodified ([1]; relative to control mimic): reduced luciferase activity | luciferase activity, RRM2 3′UTR with mutated miR-3157 binding site [2]: remained unaffected | luciferase activity, RRM2 3′UTR unmodified ([2]; relative to control mimic): reduced luciferase activity | luciferase activity, ERK1 3′UTR with mutated miR-3157 binding site [3]: remained unaffected | luciferase activity, ERK1 3′UTR unmodified ([3]; relative to control mimic): reduced luciferase activity | mRNA levels of ERK1, RRM2, AURKB, CDK4, BCL2, BIRC5 by qPCR [4]: reduced mRNA levels | decrease of mRNA levels of CDK4, BCL2 and BIRC5 in the RNAseq analysis ([5]; 72 hrs): 60% | predicted targets with reduced mRNA levels ([5]; change at least 60%, p<10^-5, in silico target prediction): 145 genes | M249-AR % Viability 30 nM [6]: 53% | M249 % Viability 5 nM [7]: 42% | A2058 % Viability 10 nM [8]: 43% | RPMI-7951 % Viability 10 nM [9]: 26% | A375Hu % Viability 10 nM [10]: 42% | A375Hu-R1 % Viability 10 nM [11]: 67%
